Reference: patent US5395836A, “8-tricycloalkyl xanthine derivatives” (Kyowa Hakko Kogyo Co., Ltd., priority 1993, dated 1995)

Experiments:
[1] = target: T1, adenosine A1 receptor (Rattus norvegicus, UniProt P25099); assay: Adenosine Receptor Antagonizing Activity (Adenosine A1 Receptor Binding Test); conditions: rat corpus striatum; 3H-CHA 1.1 nM; 25° C., 90 min; Cheng-Prusoff
T1 construct: from tissue; host or cells: rat corpus striatum, washed membrane suspension
T1 sequence (P25099 1-326): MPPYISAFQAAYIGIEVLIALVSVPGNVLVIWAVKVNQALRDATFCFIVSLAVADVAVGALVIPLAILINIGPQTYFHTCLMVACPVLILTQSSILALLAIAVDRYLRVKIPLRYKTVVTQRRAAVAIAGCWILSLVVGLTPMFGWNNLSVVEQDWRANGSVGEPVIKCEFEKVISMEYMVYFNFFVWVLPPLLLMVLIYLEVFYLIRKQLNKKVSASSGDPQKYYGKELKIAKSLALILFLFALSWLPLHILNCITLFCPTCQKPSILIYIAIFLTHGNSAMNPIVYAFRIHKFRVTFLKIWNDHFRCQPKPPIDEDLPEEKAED
Protocol: The test was conducted according to the method of Bruns et al. [Proc. Natl. Acad. Sci. U.S.A., 77., 5547 (1980)] with slight modification.
Corpus striatum of a rat was suspended in ice-cooled 50 mM Tris hydroxymethyl aminomethane hydrochloride (Tris HCl) buffer (pH 7.7) by using Polytron homogenizer (manufactured by Kinematicas Co.). The suspension was centrifuged (50,000×g, 10 minutes), and the precipitate was suspended again in the same amount of 50 mM Tris HCl buffer. The suspension was centrifuged under the same conditions, and the final precipitate was suspended once again in 50 mM Tris HCl buffer to give a tissue concentration of 100 mg (wet weight)/ml. The tissue suspension was allowed to stand in the presence of 0.02 unit/mg tissue of adenosine deaminase (manufacture by Sigma Co.) at 37° C. for 30 minutes. The tissue suspension was centrifuged (50,000×g, 10 minutes) and to the obtained precipitates was added 50 mM Tris HCl buffer to give a tissue concentration of 10 mg (wet weight)/ml.
To 1 ml of the tissue suspension thus prepared, were added 50 μl of cyclohexyladenosine labeled with tritium (^3 H-CHA: 27 Ci/mmol, manufactured by New England Nuclear) (final concentration: 1.1 nM), and 50 μl of a test compound. The resulting mixture was allowed to stand at 25° C. for 90 minutes and then rapidly filtered by suction through a glass fiber filter (GF/C, manufactured by Whatman Co.). The filter was immediately washed three times with 5 ml each of ice-cooled 50 mM Tris HCl buffer, and transferred to a vial, and scintillator (EX-H by Wako Pure Chemical Industries, Ltd.) was added thereto. The radioactivity on the filter was determined with a liquid scintillation counter (manufactured by Packard Instrument Co.).
The inhibition rate (Ki value) of the test compound against the binding of A1 receptors (^3 H-CHA binding) was calculated by the equation of Cheng-Prusoff. [formula]

[2] = Activity on (R)-PIA-Induced Amnesia (step-through passive avoidance); format: in vivo, mouse (ddY-strain); conditions: oral, amnesia treatment +, n = 15, amnesia control 51.5 ± 17.0
Protocol: Anti-dementia effect of Compound (I) was determined with (R)-PIA[(R)-N^6 -(2-phenylisopropyl)adenosine]-induced dementia model [Jpn. J. Pharmacol. 52 (Suppl. II), 107P (1990)] As the experimental animal, groups of ddY-strain mice (weighing 20-25 g), each group consisting of fifteen mice, were used. The test was performed with a step-through type passive avoidance apparatus (the bright and dark box).
The bright and dark box was made up of a bright compartment (15×9×11 cm) lighted by 4 W white fluorescent light and a dark compartment (15×14×18 cm). […] In order to give a foot shock, the electric current (0.3 mA: 2 sec) may be passed through the grid floor of the dark compartment.
The compound to be tested was suspended in 0.3% aqueous solution of carboxymethyl cellulose (CMC) and the suspension was orally administered 60 minutes before the acquisition trial (to the normal control group and the amnesia control group which is subjected to the following amnesia treatment, only 0.3% CMC was administered). 30 minutes after the administration of the test compound, 0.3 mg/kg of (R)-PIA was administered intraperitoneally as amnesia-inducing treatment [(R)-PIA was not administered to the normal control group].
The training for acquisition of learning (acquisition trial) was carried out. The rat was introduced into the bright compartment, and after 10 seconds, the guillotine door was opened. The rat in the bright compartment rapidly moved into the dark compartment. As soon as the whole body of the rat entered the dark compartment, the guillotine door was closed and an electric current of 0.3 mA was passed through the grid floor for 2 seconds (foot shock). Immediately after the foot shock, the rat was taken out of the dark compartment.
The test trial for observing the retention and recall of the memory (recall trial) was carried out as follows. Twenty-four hours after the acquisition trial, the rat was placed in the bright compartment and the guillotine door was opened. The length of time before the rat entered the dark compartment (latency) was measured. The latency was measured up to 600 seconds and the latency longer than 600 seconds was recorded as 600 seconds.
The test of significance was carried out by Steel-test.

[3] = Renal-protecting Effect (Glycerol-Induced Renal Failure Model); format: in vivo, rat (Wistar); conditions: ip, 24 h after glycerol; for Amount of creatinine in blood serum: 4.35 ± 0.23 (compound 3); for Amount of uria nitrogen in blood serum: 139.7 ± 10.2 (compound 3)
Protocol: A renal failure is a state where the renal function is lowered and the homeostasis of a body fluid can be no longer maintained. It is known that an acute renal failure characteristic of uriniferous tubule disorder is caused by subcutaneous or intramuscular injection of glycerol to rats [Can. J. Physiol.
Male Wistar rats were kept deprived of water for 18 hours, and served for the test. A test compound was intraperitoneally administered to the rats (dosage: 0.1 ml/100 g). After 30 minutes, the rats were anesthetized with ether and 50% glycerol was subcutaneously administered (dosage: 0.8 ml/100 g) to the rats, pinching the dorsal skin. Twenty four hours after the administration of glycerol, the rats were anesthetized with ether and 5 ml of blood was collected from the abdominal aorta. The collected blood was allowed to stand for 30 minutes or longer and then centrifuged at 3,000 rpm for 10 minutes, and the amounts of the serum creatinine and the serum urine-nitrogen (UN) were determined by auto analyzer (Olympus AU510) [creatinine test (Jaffe method), UN test (enzyme method); both tests were used in Olympus AU500/550 exclusive reagent […].

[4] = Diuretic Effect; format: in vivo, rat (Wistar); conditions: for Increase in amount of K+ excreted Δ(%) / Increase in amount of Na+ excreted Δ(%) / Increase in amount of urine Δ(%): control 0
Protocol: The experiment was performed by using Wistar rats (male; 150 to 300 g). The rats were starved for 18 hours prior to the administration of a test compound (n=4 to 5). After test compounds were dissolved in 0.4% methanol, 1% dimethylsulfoxide and 0.01N sodium hydroxide/physiological saline, and administered intravenously, the physiological saline (25 ml/kg) was orally administered. Alternatively, test compounds dissolved in the physiological saline (25 ml/kg) was orally administered to the rats. Urine was collected from the rats during 4 hours after the oral administration, and urine volume was measured by a graduated measuring cylinder, and the electrolytes in the urine (Na^+ and K^+) were determined by flame photometer (775 A manufactured by Hitachi, Ltd.).

## CCCn1c(=O)c2[nH]c(C34C[C@H]5CC3C[C@@H](C4)[C@@H]5O)nc2n(CCC)c1=O (relative stereo) [Compound 3, 8-(Trans-9-hydroxy-3-tricyclo[3.3.1.0^3,7]nonyl)-1,3-dipropylxanthine]
[1]
  Ki: 0.23 nM
[2]; 0.08 mg/kg
  Recall trial average reaction latency: 404.3 ± 43.5 s
[2]; 0.31 mg/kg
  Recall trial average reaction latency: 438.8 ± 43.0 s
[2]; 1.25 mg/kg
  Recall trial average reaction latency: 445.5 ± 49.5 s
[2]; 5.0 mg/kg
  Recall trial average reaction latency: 430.5 ± 43.2 s
[3]; 0.01 mg/kg, control 3.90 ± 0.24 (compounds 6, 7)
  Amount of creatinine in blood serum: 2.00 ± 0.21 mg/dL
[3]; 0.01 mg/kg, control 124.9 ± 7.5 (compounds 6, 7)
  Amount of uria nitrogen in blood serum: 69.9 ± 8.4 mg/dL
[3]; 0.1 mg/kg, control 4.55 ± 0.24 (compound 5)
  Amount of creatinine in blood serum: 2.32 ± 0.16 mg/dL
[3]; 0.1 mg/kg, control 137.2 ± 5.0 (compound 5)
  Amount of uria nitrogen in blood serum: 64.4 ± 4.5 mg/dL
[4]; iv, 3 μg/kg, n = 5, 4 hours, control 1.47 ± 0.31
  Amount of K+ excreted: 1.24 ± 0.10 mEq/kg
[4]; iv, 3 μg/kg, n = 5, 4 hours, control 1.52
  Na+/K+: 2.99
[4]; iv, 3 μg/kg, n = 5, 4 hours, control 2.23 ± 0.61
  Amount of Na+ excreted: 3.71 mEq/kg
[4]; iv, 3 μg/kg, n = 5, urine over 4 hours, control 14.5 ± 1.8
  Amount of urine: 26.4 mL/kg
[4]; po, 0.01 mg/kg, 4 hours
  Increase in amount of K+ excreted Δ(%): 11%
  Increase in amount of Na+ excreted Δ(%): 139%
  Increase in amount of urine Δ(%): 99%
[4]; po, 0.01 mg/kg, 4 hours, control 1.00
  Na+/K+: 2.16
[4]; po, 0.1 mg/kg, 4 hours
  Increase in amount of K+ excreted Δ(%): -9%
  Increase in amount of Na+ excreted Δ(%): 148%
  Increase in amount of urine Δ(%): 105%
[4]; po, 0.1 mg/kg, 4 hours, control 1.00
  Na+/K+: 2.72
